Here are results for three substances from doi:10.1101/2024.12.03.626679, “Structure of the SMYD2-PARP1 Complex Reveals Both Productive and Allosteric Modes of Peptide Binding” (bioRxiv, 2024).

In one assay the test system is histone H4. As to the kind of experiment: Antibody-based methyltransferase assay on H4. The conditions noted are these: versus wild-type SMYD2; 30°C overnight, Western blot. The class given is biochemical. The protocol:
(§1) An antibody-based methyltransferase assay was carried out similarly to a previously described method ([29]). Reactions were performed by incubating SMYD2 proteins with H3 or H4 in the presence of AdoMet at 30°C overnight in a reaction buffer containing 50 mM Tris pH 8.5, 25 mM NaCl, 5% glycerol, and 2 mM DTT. Lysine methylation was detected by Western blot analysis using antibodies against mono-, di-, and trimethylated lysine (ab23366 & ab76118, Abcam). Enzymatic activities were quantified based on chemiluminescence using a CCD gel imager.

The test system of a further assay is histone H3. In words: Antibody-based methyltransferase assay on H3. As to conditions: versus wild-type SMYD2; 30°C overnight, Western blot. Format: biochemical. The protocol:
as §1
(A western blot detects proteins with antibodies after separation by electrophoresis.)

For a further assay, the system named is PARP1(518–1014). As to the kind of experiment: Methyltransferase activity of SMYD2 proteins on PARP1(518–1014), MTase-Glo assay. Format: biochemical, human. As to conditions: versus wild-type SMYD2. The protocol:
Steady-state enzyme kinetics was carried out using the MTase-Glo methyltransferase assay according to the manufacturer’s instructions (Promega). […] After incubating the reactions with the MTase-Glo reagent and MTase-Glo Detection Solution, the amount of produced AdoHcy was determined by measuring luminescent signals using a microplate reader. The reactions were quantified using an AdoHcy standard curve that correlates the luminescence intensity to the AdoHcy concentration. Enzyme kinetic constants (KM, kcat, and Hill coefficient) were determined using initial velocity measurements at varying substrate concentrations by fitting them to a standard Michaelis-Menten kinetics model and the Hill equation.

Assay [1] concerns the target T1, SMYD2-F184A / PARP1(518–1014) interaction (Homo sapiens, UniProt Q9NRG4, F184A).
T1 construct: Full-length human SMYD2 (residues 1–433) (SMYD2-WT); 6xHis-SUMO (N, cleaved yes); made in house
In words: ELISA inhibition of SMYD2-PARP1(518–1014) interaction by PARP1 peptide, F184A mutant. The conditions noted are these: SMYD2 pre-incubated with peptide, four-parameter logistic fit, triplicate, read-out: IC50 of inhibition of F184A mutant binding to coated PARP1 protein. The procedure:
ELISA solid-phase protein binding experiments were performed according to the previously described protocol ([22]). ELISA plates were prepared by coating PARP1, H3, or H4 onto the wells in a coating buffer containing 10 mM HEPES pH 7.5, 0.1 M KCl, and 3 mM MgCl2. After blocking the plates with 1% BSA, binding experiments were performed by adding different concentrations of SMYD2 proteins into the wells. For PARP1 peptide inhibition experiments, SMYD2 proteins were pre-incubated with the PARP1 peptide before being added to the wells. Bound SMYD2 proteins were probed with the anti-SMYD2 antibody (ab108217, Abcam), and the amount of binding was quantified using an HRP-conjugated secondary antibody (ab6721, Abcam) that generated a color signal from oxidizing the substrate 2,2′-azino-bis(3-ethylbenzthiazoline sulfonic acid). The absorbance of signals was measured at 420 nm using a microplate reader at 2-minute intervals for 15 minutes. The rate of change in absorbance obtained by linear regression was used to quantify the binding. IC50 and the concentration required for 50% saturation were obtained by fitting binding data using a four-parameter logistic regression model. For reciprocal binding experiments, SMYD2 proteins were coated onto the wells and bound PARP1 was detected by the anti-PARP1 antibody (ab191217, Abcam). All binding experiments were performed in triplicate.
For orientation: ELISA stands for enzyme-linked immunosorbent assay.

No end group written: not given here.

T1 sequence (Q9NRG4 whole entry F184A, the tested form may be a part): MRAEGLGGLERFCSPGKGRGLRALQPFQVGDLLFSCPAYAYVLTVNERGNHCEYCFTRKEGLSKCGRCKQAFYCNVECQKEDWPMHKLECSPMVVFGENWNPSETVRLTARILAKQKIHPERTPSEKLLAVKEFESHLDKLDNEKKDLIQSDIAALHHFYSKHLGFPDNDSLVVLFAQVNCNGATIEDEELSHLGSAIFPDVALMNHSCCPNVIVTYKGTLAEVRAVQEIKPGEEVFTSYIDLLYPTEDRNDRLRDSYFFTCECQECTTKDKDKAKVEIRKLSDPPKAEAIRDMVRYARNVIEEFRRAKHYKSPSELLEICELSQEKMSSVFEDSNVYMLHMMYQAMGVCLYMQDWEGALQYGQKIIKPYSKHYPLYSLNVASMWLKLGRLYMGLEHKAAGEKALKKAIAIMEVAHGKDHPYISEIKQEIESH

Consider “F184A mutant: SMYD2 mutant targeting the target lysine access channel at the active site”, for which the “methylation of H4” value with histone H4 is “abolishes the methyltransferase activity”. Also, in the assay on histone H3, the “methylation of H3” value is given as “abolishes the methyltransferase activity”. Moreover, the “methylation level of PARP1 protein” value in the assay with PARP1(518–1014) is recorded as “abolishes the methyltransferase activity”.

Consider “L351A/W356A mutant: SMYD2 secondary-binding-site mutant targeting both subsites M and L”, for which the “methylation of H4” value in the assay with histone H4 was “marked increase”. The “methylation of H3” value with histone H3 is on record as “marked increase”. In addition, the “methylation level of PARP1 protein” value in the assay on PARP1(518–1014) was “notable increase”.

For RMKLTLKGGAAVD [PARP1 peptide], the IC50 (commonly the concentration that inhibits the measured activity by half) in assay [1] is about 0.153 µM.
